In US10208033B2, “β-carboline, dihydro-β-carboline and tetrahydro-β-carboline alkaloid derivatives and preparation methods same and use in aspects of preventing and treating plant viruses, fungicides and insecticides” (NANKAI UNIVERSITY, priority 2013, dated 2019):

Columns and labels:
[1] = system: tobacco mosaic virus (TMV); assay: Anti-TMV in vitro effect (half-leaf soaking); type: cell-based, tobacco mosaic virus (host Nicotiana tabacum L.cv.Xanthi NN); details: for inhibition at 100 µg/mL / inhibition at 500 µg/mL: Tobacco mosaic virus, read-out: Relative inhibition rate (%) In vitro activity
[2] = system: tobacco mosaic virus (TMV); assay: Anti-TMV in vivo inactivation; set-up: species or system tobacco mosaic virus (host Nicotiana tabacum L.cv.Xanthi NN); details: for inhibition at 100 µg/mL / inhibition at 500 µg/mL: Tobacco mosaic virus, read-out: Relative inhibition rate (%) In vivo inactivation
[3] = system: tobacco mosaic virus (TMV); assay: Anti-TMV in vivo therapeutic effect; set-up: species or system tobacco mosaic virus (host Nicotiana tabacum L.cv.Xanthi NN); details: for inhibition at 100 µg/mL / inhibition at 500 µg/mL: Tobacco mosaic virus, read-out: Relative inhibition rate (%) In vivo therapy
[4] = system: tobacco mosaic virus (TMV); assay: Anti-TMV in vivo protective effect; set-up: species or system tobacco mosaic virus (host Nicotiana tabacum L.cv.Xanthi NN); details: for inhibition at 100 µg/mL / inhibition at 500 µg/mL: Tobacco mosaic virus, read-out: Relative inhibition rate (%) In vivo protection
cucumber fusarium wilt = assay: Fungicidal (bactericidal) activity in vitro, PDA colony diameter; type: cell-based; details: 50 mg/kg; for inhibition of growth at 50 mg/kg: Fusarium, 96 h
Cercospora arachidicola = assay: as above; type: cell-based; details: 50 mg/kg; for inhibition of growth at 50 mg/kg: Mycosphaerella arachidis, 96 h
Macrophoma kawatsukai = assay: as above; type: cell-based; details: 50 mg/kg
Alternaria solani = assay: as above; type: cell-based; details: 50 mg/kg; for inhibition of growth at 50 mg/kg: Alternaria solani, 96 h
Fusarium graminearumt = assay: microbe, parasite or virus in culture; type: cell-based; details: for inhibition of growth at 50 mg/kg: Fusarium, 96 h, read-out: Bactericidal activity (%) Fusarium graminearumt
potato late blight = assay: microbe, parasite or virus in culture; type: cell-based; details: for inhibition of growth at 50 mg/kg: Phytophthora infestans, 96 h, read-out: Bactericidal activity (%) potato late blight
Sclerotinia scleotiorum = assay: Fungicidal (bactericidal) activity in vitro, PDA colony diameter; type: cell-based; details: 50 mg/kg; for inhibition of growth at 50 mg/kg: Sclerotinia, 96 h
Botrytis cinerea = assay: as above; type: cell-based; details: 50 mg/kg; for inhibition of growth at 50 mg/kg: Botrytis cinerea, 96 h
Rhizoctonia solani = assay: as above; type: cell-based; details: 50 mg/kg; for inhibition of growth at 50 mg/kg: Rhizoctonia solani, 96 h
Phytophthora capsici = assay: as above; type: cell-based; details: 50 mg/kg; for inhibition of growth at 50 mg/kg: Phytophthora capsici, 96 h
Fusarium fujikuroi = assay: as above; type: cell-based; details: 50 mg/kg; for inhibition of growth at 50 mg/kg: Fusarium fujikuroi, 96 h
Rhizoctonia cereali = assay: as above; type: cell-based; details: 50 mg/kg; for inhibition of growth at 50 mg/kg: Rhizoctonia, 96 h
Bipolaria maydis = assay: organism not typed; type: cell-based; details: for inhibition at 50 mg/kg: read-out: Bactericidal activity (%) Bipolaria maydis
[5] = system: Colletotrichum orbiculare; assay: Fungicidal (bactericidal) activity in vitro, PDA colony diameter; type: cell-based; details: 50 mg/kg; for inhibition of growth at 50 mg/kg: Colletotrichum orbiculare, 96 h
armyworms = type: in vivo; details: concentration 600 mg/kg
cotton bollworms = assay: whole plant or invertebrate; details: for mortality at 600 mg/kg: Helicoverpa armigera, in Gossypium hirsutum, read-out: Cotton bollworm Mortality (%)
Experimental: Experimental method of cotton bollworms: feed and drug mixing method: measure 3 mL of prepared solution and add it to about 27 g of newly prepared feed, thereby obtaining needed concentration through dilution by 10 times.

mosquito larvae = assay: whole plant or invertebrate; details: for Mosquito larvae Mortality (%) / mortality at 10 mg/kg: 24 h; for mortality at 10 mg/kg: Culex pipiens, read-out: Mosquito larvae Mortality (%)
In short: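 Compound dissolved in acetone (or other solvent) to a 1000 ppm stock and diluted in water to 5 ppm. Ten Culex pipiens pallens larvae at the start of the fourth instar, laboratory-reared, added per beaker; solvent-only aqueous control.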

[6] = system: armyworms, cotton bollworms and corn borers; assay: Insecticidal activity, overall statements on Table 3; type: in vivo; details: Table 3, 600 mg/kg
corn borers [7] = details: concentration 600 mg/kg
[8] = system: tobacco mosaic virus (TMV); assay: Anti-TMV activity, overall statements on Table 1; type: in vivo, tobacco mosaic virus (host Nicotiana tabacum L.cv.Xanthi NN); details: 100 μg/mL versus ningnanmycin at 100 μg/mL
corn borers [9] = assay: whole plant or invertebrate; details: read-out: Corn borer Mortality (%)

Cc1nccc2c1[nH]c1cc(OC(=O)C(C)(C)C)ccc12 [Ia-8, Tert-valerate (1-methylpyridino [3,4-b]indol-7)-ester]
Relative inhibition rate (%) In vitro activity ([1]; treatment dose 100 μg/mL): 0% | Relative inhibition rate (%) In vitro activity ([1]; treatment dose 500 μg/mL): 0% | Relative inhibition rate (%) In vivo inactivation ([2]; treatment dose 100 μg/mL): 0% | Relative inhibition rate (%) In vivo inactivation ([2]; treatment dose 500 μg/mL): 15.3% | Relative inhibition rate (%) In vivo therapy ([3]; treatment dose 100 μg/mL): 0% | Relative inhibition rate (%) In vivo therapy ([3]; treatment dose 500 μg/mL): 0% | Relative inhibition rate (%) In vivo protection ([4]; treatment dose 100 μg/mL): 0% | Relative inhibition rate (%) In vivo protection ([4]; treatment dose 500 μg/mL): 14.4% | Bactericidal activity (%) Cucumber fusarium wilt (cucumber fusarium wilt): 52.4% | Bactericidal activity (%) Cercospora arachidicola (Cercospora arachidicola): 71.4% | Bactericidal activity (%) Macrophoma kawatsukai (Macrophoma kawatsukai): 76.5% | Bactericidal activity (%) Alternaria solani (Alternaria solani): 66.7% | Bactericidal activity (%) Fusarium graminearumt (Fusarium graminearumt; 50 mg/kg): 78.6% | Bactericidal activity (%) potato late blight (potato late blight; 50 mg/kg): 50.0% | Bactericidal activity (%) Sclerotinia scleotiorum (Sclerotinia scleotiorum): 80.0% | Bactericidal activity (%) Botrytis cinerea (Botrytis cinerea): 54.6% | Bactericidal activity (%) Rhizoctonia solani (Rhizoctonia solani): 42.9% | Bactericidal activity (%) Phytophthora capsici (Phytophthora capsici): 93.9% | Bactericidal activity (%) Fusarium fujikuroi (Fusarium fujikuroi): 50.0% | Bactericidal activity (%) Rhizoctonia cereali (Rhizoctonia cereali): 90.6% | Bactericidal activity (%) Bipolaria maydis (Bipolaria maydis; 50 mg/kg): 79.0% | Bactericidal activity (%) Colletotrichum orbiculare [5]: 71.4% | Armyworm Mortality (%) (armyworms): 70% | Cotton bollworm Mortality (%) (cotton bollworms; concentration 600 mg/kg): 15% | activity against culex pipiens larvae (in words) (mosquito larvae; at 5 mg/kg): still show high activity | Mosquito larvae Mortality (%) (mosquito larvae; concentration 5 mg/kg): 60% | Mosquito larvae Mortality (%) (mosquito larvae; concentration 10 mg/kg): 100% | activity against armyworms, cotton bollworms and corn borers (in words) [6]: broad-spectrum activity | Corn borer Mortality (%) (corn borers [7]): 65%

C[C@@H]1N[C@H](C(=O)NNC(=O)c2cccc3nnsc23)Cc2c1[nH]c1ccccc21 [Id-1, N′-((1S, 3S)-1-methyl-2,3,4,9-tetrahydropyridino [3,4-b]indol-3-tricarboxylate)benzo [d] [1,2, 3] thiadiazole-7-formylhydrazine]
inhibition at 100 µg/mL ([1]; treatment dose 100 μg/mL): 22.6% | inhibition at 500 µg/mL ([1]; treatment dose 500 μg/mL): 52.1% | inhibition at 100 µg/mL ([2]; treatment dose 100 μg/mL): 16.2% | inhibition at 500 µg/mL ([2]; treatment dose 500 μg/mL): 44.1% | inhibition at 100 µg/mL ([3]; treatment dose 100 μg/mL): 26.8% | inhibition at 500 µg/mL ([3]; treatment dose 500 μg/mL): 54.5% | inhibition at 100 µg/mL ([4]; treatment dose 100 μg/mL): 29.9% | inhibition at 500 µg/mL ([4]; treatment dose 500 μg/mL): 58.3% | inhibition of growth at 50 mg/kg (cucumber fusarium wilt): 13.6% | inhibition of growth at 50 mg/kg (Cercospora arachidicola): 18.2% | inhibition at 50 mg/kg (Macrophoma kawatsukai): 51.5% | inhibition of growth at 50 mg/kg (Alternaria solani): 19% | inhibition of growth at 50 mg/kg (Fusarium graminearumt): 61.5% | inhibition of growth at 50 mg/kg (potato late blight): 17.4% | inhibition of growth at 50 mg/kg (Sclerotinia scleotiorum): 26.9% | inhibition of growth at 50 mg/kg (Botrytis cinerea): 44.4% | inhibition of growth at 50 mg/kg (Rhizoctonia solani): 1.4% | inhibition of growth at 50 mg/kg (Phytophthora capsici): 27.3% | inhibition of growth at 50 mg/kg (Fusarium fujikuroi): 47.1% | inhibition of growth at 50 mg/kg (Rhizoctonia cereali): 43.2% | inhibition at 50 mg/kg (Bipolaria maydis): 36% | inhibition of growth at 50 mg/kg [5]: 32% | Armyworm Mortality (%) (armyworms): 35% | mortality at 600 mg/kg (cotton bollworms): 15% | mortality at 10 mg/kg (mosquito larvae): 75% | anti-TMV activity compared with ningnanmycin [8]: equivalent to the activity of commercial variety ningnanmycin | mortality at 600 mg/kg (corn borers [9]): 35%

C[C@@H]1N[C@H](C(=O)NN)Cc2c1[nH]c1ccccc21 [Ib-15, (1S, 3S)-1-methyl-2,3,4,9-tetrahydropyridino [3,4-b] indol-3-formylhydrazine]
inhibition at 100 µg/mL ([1]; treatment dose 100 μg/mL): 21.4% | inhibition at 500 µg/mL ([1]; treatment dose 500 μg/mL): 50% | inhibition at 100 µg/mL ([2]; treatment dose 100 μg/mL): 16.5% | inhibition at 500 µg/mL ([2]; treatment dose 500 μg/mL): 46% | inhibition at 100 µg/mL ([3]; treatment dose 100 μg/mL): 20.3% | inhibition at 500 µg/mL ([3]; treatment dose 500 μg/mL): 48.2% | inhibition at 100 µg/mL ([4]; treatment dose 100 μg/mL): 23.4% | inhibition at 500 µg/mL ([4]; treatment dose 500 μg/mL): 49.6% | inhibition of growth at 50 mg/kg (cucumber fusarium wilt): 13.6% | inhibition of growth at 50 mg/kg (Cercospora arachidicola): 18.2% | inhibition at 50 mg/kg (Macrophoma kawatsukai): 39.4% | inhibition of growth at 50 mg/kg (Alternaria solani): 9.5% | inhibition of growth at 50 mg/kg (Fusarium graminearumt): 38.5% | inhibition of growth at 50 mg/kg (potato late blight): 26.1% | inhibition of growth at 50 mg/kg (Sclerotinia scleotiorum): 30.8% | inhibition of growth at 50 mg/kg (Botrytis cinerea): 27.8% | inhibition of growth at 50 mg/kg (Rhizoctonia solani): 4.2% | inhibition of growth at 50 mg/kg (Phytophthora capsici): 51.5% | inhibition of growth at 50 mg/kg (Fusarium fujikuroi): 29.4% | inhibition of growth at 50 mg/kg (Rhizoctonia cereali): 54.1% | inhibition at 50 mg/kg (Bipolaria maydis): 24% | inhibition of growth at 50 mg/kg [5]: 24% | Armyworm Mortality (%) (armyworms): 20% | mortality at 600 mg/kg (cotton bollworms): 20% | mortality at 10 mg/kg (mosquito larvae): 40% | anti-TMV activity compared with ningnanmycin [8]: equivalent to the activity of commercial variety ningnanmycin | mortality at 600 mg/kg (corn borers [9]): 30%
